Measured values: patent publication US20260184692A1, “HETEROCYCLIC COMPOUNDS, PREPARATION METHODS AND USES THEREOF” (InventisBio Co., Ltd., priority 2022, published 2026)

Legend:
[1] = Human Plasma Protein Binding Assay (dialysis); type: in vitro ADME; details: 1 μM compound, dialysis 6 hr at 37 °C
Method: The plasma protein binding of compounds in human plasma was determined using a dialysis method. The dialysis membrane strips were prepared by soaking them in ultra-pure water for about 1 hr at room temperature, followed by separation and soaking in ethanol:water (20:80 v:v) for about 20 min, and a final rinse with ultra-pure water. Prior to use, the membranes were rinsed and soaked for another 20 min in ultra-pure water.
The blank plasma samples were thawed, centrifuged and verified its pH values. Only the plasma with pH between 7.0-8.0 was used in the experiment. The final concentration of compound in the spiked plasma is 1 μM, with final DMSO<=1%. All samples were prepared in triplicates. The time zero (T0) samples was used for determining the recovery of the compound of interest after dialysis. It was prepared in the same way as other dialysis samples except it was stored at 2-8° C. before LC-MS/MS analysis.
The other spiked plasma samples were loaded onto the dialysis device and incubated at and 37±1° C. with 5% CO2 for 6 hr. At the end of the dialysis, aliquots of samples from the plasma and buffer sides of the dialysis device were taken and processed for LC-MS/MS analysis.
The % Unbound, % Bound, and % Recovery of the compounds were calculated from the peak area ratios of the analyte and internal standard in the plasma and buffer samples as shown in the following equations:
[formula] [formula] [formula] • where [F] is the peak area ratio of analyte/internal standard on the buffer (receiver) side of the membrane; [T] is the peak area ratio of analyte/internal standard on the plasma (donor) side of the membrane; [T0] is the peak area ratio of analyte/internal standard in the plasma sample at time zero.

OVCAR3 Cells = test: OVCAR3 Cell Viability Assay (CellTiter-Glo); type: cell-based; details: Homo sapiens, OVCAR-3, 144 h, 6 days incubation, read-out: OVCAR3 CTG IC50
Method: (§1) OVCAR3 Cells (ATCC, Cat #HTB-161) were seeded at a density of 2000 cells/well in a 96-well clear bottom plate (Greiner, Cat #655098) in 100 μL of complete media (RPMI1640+20% FBS+0.01 mg/mL human insulin). One hundred microliter of complete media was added into the blank well (column 1) for low control. Cells were allowed to adhere to the plate overnight in the incubator at 37° C., 5% CO2. On the following day, 0.5 μL of serially-diluted compounds were added to the cells (columns 2-10) and incubated for 6 days at 37 C, 5% CO2 (final 0.5% DMSO concentration); 0.5 μL of DMSO solution was added into the wells (column 11) for high control. Cell viability was detected according to the CellTiter-Glo Luminescent Cell Viability Assay Kit (Promega, Cat #G7573). Luminescence was recorded on the Tecan Spark plate reader. Inhibition rate (IR) of the tested compounds was determined by the following formula: IR (%)=(1−(RLUcompound−RLUlow control)/(RLUhigh control−RLUlow control))×100%. The IC50 value was calculated using the non-linear regression equation: Y=Bottom+(Top−Bottom)/(1+10^((Log IC50−X)×HillSlope)), where X is Log of compound concentration, Y is percent inhibition (IR (%)), Top and Bottom are plateaus in same units as Y.

[2] = Human Microsomal Clearance Assay; type: in vitro ADME; details: pH 7.4, human liver microsomes 0.5 mg/mL, 1 μM compound, 2 mM NADPH; for CLint scaled at 1 μM: in vitro intrinsic clearance
Method: This study aimed to assess the metabolic stability of a compound in human liver microsomes using a microsomal clearance assay.
A mixture containing 100 mM potassium phosphate, pH 7.4, 0.5 mg/mL liver microsomes, 2 mM NADPH, and 1 μM compound were prepared and added to 96-well plate. The plates were then incubated at 37° C. for different time points (0, 5, 15, 30, 45 minutes) and the reaction was stopped with acetonitrile solution containing an internal standard. The samples were then analyzed by LC/MS/MS to determine how much of the compound remained at each time point. The elimination rate constant and half-life were calculated from the data as follows: Elimination rate constant (k)=−slope; Half-life (T1/2)=0.693/k.
The in vitro intrinsic clearance, Clint, was calculated from the T1/2 as follows: Clint=(0.693/T1/2)×(1/(microsomal protein concentration (0.5 mg/mL)))×Physiological Scaling Factor.

Mouse PK Assay = type: in vivo; details: plasma, male BALB/c mouse; for MRT: IV; for half-life: single oral dose 5 mg/kg, read-out: PO T1/2 (converted)
HCC1806 Cells = test: HCC1806 Cell Viability Assay (CellTiter-Glo); type: cell-based; details: Homo sapiens, 144 h, 6 days incubation, read-out: HCC1806 CTG IC50
Method: as §1, with “HCC1806 Cells” for “OVCAR3 Cells”, “Cat #CRL-2335)” for “Cat #HTB-161)”, “of 500” for “of 2000”, “media (RPMI1640+10% FBS).” for “media (RPMI1640+20% FBS+0.01 mg/mL human insulin).”, “blank wells” for “blank well”, “at 37° C.,” for “at 37 C,”

P450 2C9 = biological target: T1, P450 2C9 (Homo sapiens, UniProt P11712); test: In Vitro Cytochrome P450 Inhibition Study; type: in vitro ADME; details: human liver microsomes (HLM), test compound 0.137 μM to 10 μM, 10 min at 37 °C
T1 construct: incubation with known industry-accepted CYP450 substrates, test articles and microsomes (HLM); from tissue; host or cells: liver microsomes (HLM)
Method: CYP inhibition was evaluated by monitoring corresponding metabolite decrease after incubation with known industry-accepted CYP450 substrates, test articles and microsomes (HLM).
Eight reaction wells with 30 μL of a solution containing 100 mM potassium phosphate, pH 7.4 and 1:3 serial dilutions of the test compound were prepared along with eight wells of 1:3 serial dilutions of Sulfaphenazole (a positive control inhibitor). The assay plates were pre-warmed after 15 μL of probe substrate was added into appropriate wells. Then the reactions were initiated by adding 15 μL of a pre-warmed 8 mM NADPH solution resulting in a final NADPH concentration of 2 mM. The concentrations of test compound ranged from 0.137 μM to 10 μM. A zero time-point control reaction was prepared by adding 135 μL acetonitrile (ACN) containing tolbutamide (200 ng/mL) as internal standard (IS) to 30 μL. of the reaction solution to inactivate the enzymes before adding the probe substrate. A control reaction with no inhibitor was also prepared. After a suitable incubation at 37° C., 10 min, the reactions were terminated by the addition of 135 μL ACN containing IS. The reactions were prepared and analyzed for the metabolite forms of the probe substrate using LC-MS/MS.

T1 sequence (P11712 whole entry): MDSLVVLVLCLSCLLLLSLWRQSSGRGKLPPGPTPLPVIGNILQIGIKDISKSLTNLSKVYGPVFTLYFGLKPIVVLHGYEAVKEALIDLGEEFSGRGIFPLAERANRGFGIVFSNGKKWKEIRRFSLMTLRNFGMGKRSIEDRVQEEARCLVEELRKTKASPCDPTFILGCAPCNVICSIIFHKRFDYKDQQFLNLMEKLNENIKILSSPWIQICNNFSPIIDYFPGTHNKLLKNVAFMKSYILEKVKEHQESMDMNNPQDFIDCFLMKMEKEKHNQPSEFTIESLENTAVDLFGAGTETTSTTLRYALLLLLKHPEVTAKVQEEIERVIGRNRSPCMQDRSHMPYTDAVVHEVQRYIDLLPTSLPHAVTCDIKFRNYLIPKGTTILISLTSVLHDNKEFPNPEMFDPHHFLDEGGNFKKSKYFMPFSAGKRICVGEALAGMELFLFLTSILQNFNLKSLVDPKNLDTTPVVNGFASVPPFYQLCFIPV

SMILES | IC50 (OVCAR3 Cells) | IC50 (HCC1806 Cells) | further results
N#Cc1ccc(N2CC3(CCC4(CC4)CC3)c3cc(NS(=O)(=O)CCO)ccc3C2=O)nc1NC1CCC(F)(F)C1 (single isomer, unassigned) [Compound 110] |  |  | half-life at 1 μM [2]: 2.52 h; CLint scaled at 1 μM [2]: < 12.4 mL/min/kg
O=C(Nc1ccc2c(c1)ncn2CC(F)(F)F)c1ccc(NS(=O)(=O)CCO)cc1N1CCC2(CC1)CC2 [Compound 3] | > 2000 nM | > 2000 nM | 
Cc1cc(NC(=O)c2ccc(NS(=O)(=O)CCO)cc2C2=CCC3(CC2)CC3)nc(N2CCC(F)(F)CC2)n1 [Compound 6] | < 200 nM | < 200 nM | 
CN1CCOc2ccc(NC(=O)c3ccc(NS(=O)(=O)CCO)cc3N3CCC4(CC3)CC4)nc21 [Compound 7] |  | > 2000 nM | 
O=C1c2ccc(NS(=O)(=O)CCO)cc2C2(CCC3(CC3)CC2)CN1c1cccc(N2CCC3CC32)n1 (centres unmarked) [Compound 26] | 200 to 2000 nM | 200 to 2000 nM | 
N#Cc1ccc(N2CC3(CCC4(CC4)CC3)c3cc(NS(=O)(=O)CCO)c(F)cc3C2=O)nc1N1CCC(F)(F)CC1 [Compound 75] |  |  | MRT (Mouse PK Assay): 8 h; half-life (Mouse PK Assay): 6.3 h
N#Cc1ccc(N2CC3(CCC4(CC4)CC3)c3cc(NS(=O)(=O)CCO)ncc3C2=O)nc1N1CCC(F)(F)CC1 [Compound 80] | < 200 nM |  | IC50 (P450 2C9): > 10000 nM
CC1(C)CCC2(CC1)CN(c1ccc(C#N)c(N3CCC(F)(F)CC3)n1)C(=O)c1ccc(NS(=O)(=O)CCO)cc12 [Compound 90] | < 200 nM |  | IC50 (P450 2C9): > 10000 nM
CC1(C)CCC2(CC1)CN(c1ccc(C#N)c(NC3CC(F)(F)C3)n1)C(=O)c1ccc(NS(=O)(=O)CCO)cc12 [Compound 95] | < 200 nM |  | half-life at 1 μM [2]: 1.98 h; CLint scaled at 1 μM [2]: 14.6 mL/min/kg
CCS(=O)(=O)Nc1ccc2c(c1)C1(CCC3(CC3)CC1)CN(c1ccc(C#N)c(S(=O)(=O)NC(C)(C)C)c1)C2=O [Compound 120] | < 200 nM |  | fraction unbound at 6 hr, 1 μM [1]: 0.0122
CN1CCN(C(=O)c2ccc(N3CC4(CCC5(CC5)CC4)c4cc(NS(=O)(=O)CCO)ccc4C3=O)nc2N2CCC(F)(F)CC2)CC1 [Compound 172] | 200 to 2000 nM |  | 
Cc1nccc(-c2ccc(N3CC4(CCC5(CC5)CC4)c4cc(NS(=O)(=O)CCO)ccc4C3=O)nc2NC2CC(F)(F)C2)n1 [Compound 174] | < 200 nM |  | 
CN1CC=C(c2ccc(N3CC4(CCC5(CC5)CC4)c4cc(NS(=O)(=O)CCO)ccc4C3=O)nc2N2CCC(F)(F)CC2)CC1 [Compound 176] | 200 to 2000 nM |  | 
CN1CCN(c2ccc(N3CC4(CCC5(CC5)CC4)c4cc(NS(=O)(=O)CCO)ccc4C3=O)nc2N2CCC(F)(F)CC2)C(=O)C1 [Compound 178] | < 200 nM |  | 
CN1CCC(c2ccc(N3CC4(CCC5(CC5)CC4)c4cc(NS(=O)(=O)CCO)ccc4C3=O)nc2N2CCC(F)(F)CC2)CC1 [Compound 179] | 200 to 2000 nM |  | 

The next lines start with results.

IC50 (OVCAR3 Cells) | IC50 (HCC1806 Cells) | SMILES | further results
< 200 nM |  | O=C1c2ccc(NS(=O)(=O)CCO)cc2C2(CCC3(CC3)CC2)CN1c1ccnc(NC2CCC(F)(F)C2)n1 (single isomer, unassigned) [Compound 71] | fraction unbound at 6 hr, 1 μM [1]: 0.0014
< 200 nM | < 200 nM | O=C1c2ccc(NS(=O)(=O)CCO)cc2C2(CCC3(CC3)CC2)CN1c1ccnc(N2CCC(F)(F)CC2)n1 [Compound 1] | MRT (Mouse PK Assay): 7.5 h; half-life (Mouse PK Assay): 4.8 h
200 to 2000 nM | 200 to 2000 nM | O=C1c2ccc(NS(=O)(=O)CCO)cc2C2(CCC3(CC3)CC2)CN1c1ccnc(N2CCC(F)(F)C2)n1 [Compound 12] | 
< 200 nM |  | O=C1c2ccc(NS(=O)(=O)CCO)cc2C2(CCC3(CC3)CC2)CN1c1ccnc(NC2CC(F)(F)C2)n1 [Compound 21] | fraction unbound at 6 hr, 1 μM [1]: 0.002
200 to 2000 nM | 200 to 2000 nM | O=C1c2ccc(NS(=O)(=O)CCO)cc2C2(CCC3(CC3)CC2)CN1c1ccc2c(n1)N1CCC(F)(F)CC1CO2 (centres unmarked) [Compound 31] | 
< 200 nM | < 200 nM | CN(c1cccc(N2CC3(CCC4(CC4)CC3)c3cc(NS(=O)(=O)CCO)ccc3C2=O)n1)C1CC(F)(F)C1 [Compound 34] | 
< 200 nM |  | N#Cc1ccc(N2CC3(CCC4(CC4)CC3)c3cc(NS(=O)(=O)CCO)ccc3C2=O)nc1NC1CC(F)(F)C1 [Compound 56] | half-life at 1 μM [2]: 2.37 h; CLint scaled at 1 μM [2]: < 12.4 mL/min/kg
< 200 nM |  | N#Cc1ccc(N2CC3(CCC4(CCC4)CC3)c3cc(NS(=O)(=O)CCO)ccc3C2=O)nc1N1CCC(F)(F)CC1 [Compound 116] | IC50 (P450 2C9): 6700 nM; MRT (Mouse PK Assay): 6.9 h; half-life (Mouse PK Assay): 4.6 h
< 200 nM |  | COCCOc1ccc(N2CC3(CCC4(CC4)CC3)c3cc(NS(=O)(=O)CCO)ccc3C2=O)nc1N1CCC(F)(F)CC1 [Compound 136] | IC50 (P450 2C9): > 10000 nM
< 200 nM |  | Cn1cnc(-c2ccc(N3CC4(CCC5(CC5)CC4)c4cc(NS(=O)(=O)CCO)ccc4C3=O)nc2N2CCC(F)(F)CC2)n1 [Compound 175] | 
< 200 nM |  | O=C1c2ccc(NS(=O)(=O)CCO)cc2C2(CCC3(CC3)CC2)CN1c1ccc(-c2cc[nH]n2)c(N2CCC(F)(F)CC2)n1 [Compound 180] | 
